Laboratory results taken from patent US9884874B2, “Bromodomain-inhibiting compounds and pharmaceutical composition comprising same for preventing or treating a cancer” (KAINOS MEDICINE, INC., priority 2014, dated 2018).

Columns and labels:
[1] = system: LnCAP (human prostatic adenocarcinoma cell line); test: Anti-proliferative activity test (CellTiter-Glo), LnCAP; type: cell-based; details: first value of LnCAP/MV4-11 cell, read-out: Cell proliferation IC50 (LnCAP)
Procedure: (§1) IC50 (uM) of the compounds obtained in Examples 1 to 18 against hematological cancer cells and solid tumors was measured for identifying anti-proliferative activities.
(§2) A human prostatic adenocarcinoma cell line, LnCAP (ATCC®, CRL-1740) and human leukemia cell line MV4-11 (ATCC®, CRL-9591) were used to test the degrees of the compounds 1 to 18 in inhibiting the cancer cell growth. The testing cell concentration was adjusted to 6.7×10^3 cells/ml with a culture medium supplemented with 10% FBS, in the temperature of 37° C., 5% CO2 and 95% humidity. Culture media and FBS were purchased from GIBCO. 90 μL of cell suspensions thus obtained was added to two 96-well plates with the final cell density of 600 cells/well, followed by addition of 10 μL of culture medium to each well of plate. The plates were incubated overnight in a humidified incubator at 37° C. with 5% CO2.
(§3) Compounds 1 to 18 were each dissolved with dimethylsulfoxide (DMSO) or phosphate buffer solution (PBS) as a stock solution, and 200× solutions of test compound (2 mM) using DMSO were prepared. Then, the DMSO solution thus obtained was diluted 20-fold with culture medium or PBS to obtain 10× working solution. 10 μL of 10× working solution (drug solution) was dispensed to each well (triplicate for each concentration). The final concentration of DMSO in culture medium was 0.5% [v/v].
(§4) Cell viability was determined using CellTiter-Glo® (CTG) assay. 100 μL of CellTiter-Glo® was added to the equal volume of the cultured cells to read luminescence in EnVision Multi Label Reader.

[2] = Human liver microsomal stability/clearance; type: in vitro ADME; details: human liver microsomes; first value of Human/Mouse cell; read-out: Liver microsomal clearance (Human)
Procedure: (§5) Human and mouse liver microsomal clearance assays were carried out in CROWN Biosciences (Taicang, China). The human liver microsomes (Cat No. X008067, Lot No. KQB) and mouse liver microsomes (Cat No. M1000, Lot No. 1210302) were purchased from Celsis and Xenotech, respectively.
(§6) 5 μL of test compound stock solution was diluted with 495 μL of 1:1 Methanol/Water (final concentration: 100 μM, 50% MeOH) and combined with 534 μL of the respective liver microsome solution (final concentration: 1.111 μM, 0.555% MeOH). The final concentration of the liver microsome solution was 0.7 mg protein/mL.
(§7) Incubations of the liver microsome solutions were performed in a 96 well plate at 37° C. 90 μL of the liver microsome solutions were added to Blank, and 90 μL of working solution of the test compound was added to all plates except the Blank.
(§8) All plates thus obtained were warmed in water bath at 37° C. for 10 min, and 10 μL of NADPH co-factor solution comprising 42 mg of β-nicotinamide adenine dinucleotide phosphate (Sigma Cat. No. N0505 Lot 020M7009V), 84 mg of isocitric acid (Sigma Cat. No. 11252 Lot 119K1099) and 0.478 mL of isocitric dehydrogenase (Sigma Cat. No. 12002 Lot 086K7055, 15 units/mg protein, warmed in water bath at 37° C. for 5 min was added to the plates. The resulting plates were incubated at 37° C. in the following order: T60 (The test compounds were incubated with the liver microsomal solution and NADPH for 60 min at 37° C.), T30 (such as for 30 min.), and T10 (such as for 10 min.). 300 μL of a cold (4° C.) stop solution (acetonitrile (ACN) including 500 nM of tolbutamide as internal standard) and 10 μL of NADPH co-factor solution to starting plate (T0: 100% of the parent compound without any reaction) were added to the plates. The reaction was stopped by adding 300 μL of the cold (4° C.) stop solution to the other plates in the following order: T10 first, then T30 and T60.
(§9) The samples were centrifuged at 4,000 rpm for 20 min and transferred to Bioanalytical Services for liquid chromatography-mass spectrometry (LC-MS)/MS (Waters UPLC/API 4000, 10 μL injection) analysis.

[3] = system: A375 (malignant melanoma); test: Anti-proliferative activity, A375; type: cell-based; details: Homo sapiens, A-375, read-out: Cell proliferation, IC50
[4] = Animal pharmacokinetics in ICR mice; type: in vivo; details: ICR, mouse, 10 mg/kg
Procedure: Pharmacokinetics of the compounds of 1, 2, 7, 8 11 and 15 were evaluated in ICR mice (6˜8 weeks, 20˜25 g) following intravenous (IV) administration at 10 mg/kg and per oral (PO) administration at 10 mg/kg dose level, respectively. Especially, the additional dose level of Compound 1 was 30 mg/kg.
For serum compound analysis, blood samples were collected by cardiac puncture over 24 hr time course. 20 μL of spiked plasma was added into a 96-well plate, adding ten volumes of internal standard (IS) in acetonitrile (ACN) to the obtained precipitated protein mixed thoroughly, centrifuged at 4,000 rpm for 10 min. 150 μL of supernatant thus obtained was transferred to another pre-labeled 96-well plate, mixed with 150 μL of water. 5 μL or 10 μL of the mixture was injected into the LC-MS system under the following conditions:
Column: API-4000+Waters UPLC (TCLM08);
Lower limit of quantification (LLOQ) was at 1 ng/mL. Pharmacokinetic parameters of half-life (T1/2), clearance (CL), maximum plasma concentration (Cmax), mean residence time (MRT) and bioavailability (F %), plasma exposure (AUC) of the compound were calculated using Phoenix WinNonlin 6.3 (non-compartmental model).

[5] = system: MV4-11 (human leukemia cell line); test: Anti-proliferative activity test (CellTiter-Glo), MV4-11; type: cell-based; details: second value of LnCAP/MV4-11 cell, read-out: Cell proliferation IC50 (MV4-11)
Procedure: as §1, §2, §3, §4

OPM-2 (multiple myeloma) = test: Anti-proliferative activity, OPM-2; type: cell-based; details: Homo sapiens, read-out: Cell proliferation, IC50
[6] = Mouse liver microsomal stability/clearance; type: in vitro ADME; details: mouse liver microsomes; second value of Human/Mouse cell; read-out: Liver microsomal clearance (Mouse)
Procedure: as §5, §6, §7, §8, §9

SK-LU-1 (adenocarcinoma) = test: Anti-proliferative activity, SK-LU-1; type: cell-based; details: Homo sapiens, SKLU-1 (Adenocarcinoma), read-out: Cell proliferation, IC50
human BRD4 bromodomain 1 = human BRD4 bromodomain 1 (Homo sapiens (Human), UniProt O60885); test: Bromodomain binding assay (BRD4 Alpha-screen); details: acetylated histone H4 peptide
Procedure: Bromodomain binding assays were carried out in Reaction Biology (PA, USA) to test the degrees of the inventive compounds in inhibiting the human BRD4 bromodomain 1 by Alpha-screen assay method.
Recombinant human BRD4 bromodomain 1 expressed in E. coli with N-terminal His-tag was used as the enzyme target.
A synthetic peptide ([…]-GSGSK-biotin) containing 1 to 21th amino acids of histone H4 acetylated at lysine 5, 8, 12 and 16 and conjugated to biotin was purchased from Millipore.
BRD4-1 (44 to 170th amino acids; Genbank Accession # NM_058243) was expressed in E. coli with N-terminal His-tag (see, Ni-NTA spin Kit Handbook (Qiagen), second edition, January, 2008). Nickel-Chelate ALPHA acceptor beads (Perkin Elmer) were used to specifically bind BRD4-1, and ALPHA streptavidin donor beads (Perkin Elmer) were used because they specifically recognized the biotinylated H4 peptide.
BRD binding assays were performed in a mixture comprising 50 mM Hepes (pH7.5), 100 mM NaCl, 0.05% CHAPS, 0.1% BSA, and 1% DMSO. After an assay reaction time of 60 min at 25° C., binding was measured with streptavidin donor beads and nickel-chelate acceptor beads. ALPHA signal was detected on Enspire (Ex/Em=680/520-620 nm). IC50 values were calculated from the fit of the dose-response curves. All IC50 values represent geometric mean values of a minimum of four determinations. These assays generally produced results within 3-fold of the reported mean.

Row | Compound | IC50 [1] [nM] | microsomal CLint at 1 µM [2] [µL/min/mg] | IC50 [3] [nM] | AUC ([4]; in vivo, IV) [µM·h] | MRT ([4]; in vivo, IV) [h] | clearance ([4]; in vivo, IV) [mL/min/kg] | AUC ([4]; in vivo, PO) [µM·h] | MRT ([4]; in vivo, PO) [h] | bioavailability ([4]; in vivo, PO) [%] | IC50 [5] [nM] | IC50 (OPM-2 (multiple myeloma)) [nM] | microsomal CLint at 1 µM [6] [µL/min/mg] | IC50 (SK-LU-1 (adenocarcinoma)) [nM] | IC50 (human BRD4 bromodomain 1) [nM] | AUC ([4]; plasma, IV) [µM·h] | MRT ([4]; plasma, IV) [h] | clearance ([4]; plasma, IV) [mL/min/kg] | AUC ([4]; plasma, PO) [µM·h] | MRT ([4]; plasma, PO) [h] | bioavailability ([4]; plasma, PO) [%]
1 | CCS(=O)(=O)OC[C@@H]1N=C(c2ccc(Cl)cc2)c2cc(OC)ccc2-n2c(C)nnc21 [Compound 2, (R)-(6-(4-chlorophenyl)-8-methoxy-1-methyl-4H-benzo[f][1,2,4]triazolo[4,3-a][1,4]diazepin-4-yl)methyl ethanesulfonate] | 600 | 1.9 | 9300 | 73 | 3.9 | 4.9 | 66 | 4.1 | 89.8 | 410 | 650 | 8.1 | 1450 | 220 | – | – | – | – | – | –
2 | COc1ccc2c(c1)C(c1ccc(C#N)cc1)=N[C@@H](COS(C)(=O)=O)c1nnc(C)n1-2 [Compound 7, (R)-(6-(4-cyanophenyl)-8-methoxy-1-methyl-4H-benzo[f][1,2,4]triazolo[4,3-a][1,4]diazepin-4-yl)methyl methanesulfonate] | 830 | 2.1 | – | 17.3 | – | 22.5 | 8.19 | – | 47.4 | 3340 | – | 3.4 | – | 230 | – | – | – | – | – | –
3 | COc1ccc2c(c1)C(c1ccc(Cl)cc1)=N[C@@H](COS(N)(=O)=O)c1nnc(C)n1-2 [Compound 8, (R)-(6-(4-chlorophenyl)-8-methoxy-1-methyl-4H-benzo[f][1,2,4]triazolo[4,3-a][1,4]diazepin-4-yl)methyl sulfamate] | 960 | 5 | – | 41 | – | 9 | 31.5 | – | 62.3 | 1490 | – | 5 | – | 220 | – | – | – | – | – | –
4 | Cc1nnc2n1-c1ccc(-c3cnn(C)c3)cc1C(c1ccc(Cl)cc1)=N[C@H]2COS(C)(=O)=O [Compound 11, (R)-(6-(4-chlorophenyl)-1-methyl-8-(1-methyl-1H-pyrazol-4-yl)-4H-benzo[f][1,2,4]triazolo[4,3-a][1,4]diazepin-4-yl)methyl methanesulfonate] | 190 | 8.6 | – | 20 | – | 16.8 | 11.7 | – | 58.4 | 320 | – | 8.6 | – | 87 | – | – | – | – | – | –
5 | Cc1sc2c(c1C)C(c1ccc(Cl)cc1)=N[C@@H](COS(C)(=O)=O)c1nnc(C)n1-2 [Compound 15, (R)-(4-(4-chlorophenyl)-2,3,9-trimethyl-6H-thieno[3,2-f][1,2,4]triazolo[4,3-a][1,4]diazepin-6-yl)methyl methanesulfonate] | 480 | 20 | – | – | – | – | – | – | – | 500 | – | 22 | – | 100 | 27 | 1.9 | 13.5 | 31 | 2.5 | 105
